Measured values taken from patent publication US20200308624A1, “Phosphate and tensin homolog (PTEN) for the detection of autoimmune diseases or conditions” (Universitätsmedizin der Johannes Gutenberg-Universität Mainz, priority 2019, published 2020).

Experiments:
Assay type in all cases: cell-based, human
[1] = test system: Treg-resistant T cells from MS patients; experiment: Suppressor assay: MS T cells cocultured with Treg, proliferation by 3H-Tdr incorporation; details: anti-CD3 mAb stimulation, FIG. 1E, n=4
Description: A) PBMC from therapy-naïve MS patients (red) or HC (black) were cocultured with Treg and stimulated with anti-CD3 mAb. T cell proliferation was determined by ^3H-Tdr incorporation on day three. Box plots show percentage of suppression in presence of Treg (ratio 4:1) normalized to proliferation of T cells alone as median with interquartile range (n=15), P-values relative to T cells of HC are shown, to avoid familywise error rate bonferroni correction was used p*. B) C) IL-6R expression within CD3+ T cells of PBMC from HC or MS was determined by flow cytometry. One representative of eight independent experiments is shown. D) PKB/c-Akt phosphorylation was determined by flow cytometry within CD3^+ T cells of MS (red) or HC (black). Six different experiments are shown, p-values relative to MFI of HC. E) MS T cells with Treg were stimulated with anti-CD3 mAb without (circle) or with (quadrats) anti-IL-6R mAb or (triangles) Akt-VIII inhibitor. Each dot represents percentage of proliferation with Treg normalized to T cells alone (n=4), p-values to MS T cells.
CD4^+CD25^− T cells (10^5 cells/well, 96 well plate, flat bottom) were stimulated with 0.1 μg/ml anti-CD3 mAb (OKT-3) and cultured in presence or absence of different Treg ratios. CD3-depleted PBMC (5×10^4/well) were used as costimulus. […] T cell proliferation was measured by ^3H-Tdr incorporation using a liquid […] counter. […]

[2] = test system: CD4+CD25- T cells from healthy donors; experiment: Suppressor assay: T cells and Treg cocultured in presence of IL-6 (3H-Tdr); details: T cells from healthy donors incubated overnight with IL-6 (500 ng/ml)
From the text: In addition to PKB, also IL-6 and its signaling pathway play a crucial role in whether T cells from MS patients respond to suppression by Treg or not. In the context of autoimmune diseases, it has been investigated how the increased IL-6 production observed in MS can affect PTEN protein expression.
(§1) FIG. 5: IL-6 mediates Treg resistance by inducing the phosphorylation of PKB/c-Akt and downregulation of PTEN in activated T cells A) T cells and Treg were cocultured in presence (grey) or absence (black) of IL-6 and stimulated with anti-CD3 mAb. […] B) PKB/c-Akt phosphorylation was analyzed by flow cytometry within T cells after 24 h of culture with (black) or without IL-6 (grey). C) T cells from HC were incubated for 24 h without IL-6 (black) or with IL-6 (grey) or IL-6 and anti-IL-6R mAb (striped). Shown is the mean fluorescence intensity (MFI) of pPKB/c-Akt in T cells (n=5). D) PBMC from HC were cultured for 24 h in the presence or absence of 500 ng/ml IL-6. […] Total proteins were isolated and PTEN protein expression was analyzed via western blot.
CD4^+CD25^− T cells (10^5 cells/well, 96 well plate, flat bottom) were stimulated with 0.1 μg/ml anti-CD3 mAb (OKT-3) and cultured in presence or absence of different Treg ratios. […] T cell proliferation was measured by ^3H-Tdr incorporation using a liquid […] counter. […]

PKB/c-Akt = PKB/c-Akt phosphorylation in T cells after culture with IL-6 (flow cytometry)
Description: as §1
Flow cytometric analysis was performed using the following antibodies: anti-human CD3 (UCHT1), anti-human CD4 (RPA-T4), anti-human CD8 (SK1), anti-human CD14 (M5E2), anti-human CD19 (HIB19), all from BD Pharmingen, anti-human CD25 (4E3), anti-human CD127 (MB15-18C9), all from Miltenyi Biotec. […] Cell viability during flow cytometric analysis was determined using 7-AAD and eFluor506 (eBioscience). […] Stained cells were measured on LSRII with FACS Diva Software (BD Bioscience) or FACSVia™ and data was analyzed with BD FACSVia Research Software (BD Biosciences). […]

PTEN protein = PTEN protein expression in IL-6-treated activated CD4+ T cells (Western blot); details: IL-6-treated (500 ng/ml, 24 h) T cells, 2 hours after polyclonal activation, compared to untreated controls
Description: FIG. 5: IL-6 mediates Treg resistance by inducing the phosphorylation of PKB/c-Akt and downregulation of PTEN in activated T cells A) T cells and Treg were cocultured in presence (grey) or absence (black) of IL-6 and stimulated with anti-CD3 mAb. […] B) PKB/c-Akt phosphorylation was analyzed by flow cytometry within T cells after 24 h of culture with (black) or without IL-6 (grey). C) T cells from HC were incubated for 24 h without IL-6 (black) or with IL-6 (grey) or IL-6 and anti-IL-6R mAb (striped). Shown is the mean fluorescence intensity (MFI) of pPKB/c-Akt in T cells (n=5). D) PBMC from HC were cultured for 24 h in the presence or absence of 500 ng/ml IL-6. CD4^+ T cells were isolated, left unstimulated or were activated with anti-CD3 and anti-CD28 mAb for two hours. Total proteins were isolated and PTEN protein expression was analyzed via western blot.
Cell pellets were lysed in Cell Extraction Buffer (Invitrogen) supplemented with 1 mM PMSF (Invitrogen) and Protease Inhibitor Cocktail (Sigma) for 30 min on ice with vortexing at 10 min intervals. Total protein concentration of cell lysates was determined with Micro BCA Protein Assay Kit (Thermo Fisher Scientific) according to manufacturer's protocol. Protein separation was performed using the NuPAGE® Bis-Tris electrophoresis system (Thermo Fisher Scientific). […] Western blots were analyzed and quantified with ImageJ software.

Compound | responsiveness towards Treg-mediated suppression [1] | Treg resistance [2] | phosphorylation of protein kinase B (PKB/c-Akt; T cells from healthy donors, 24 h with IL-6) | PTEN protein expression (PTEN protein) | IL-6-induced hyperactivation of PKB (PKB/c-Akt; T cells from HC, 24 h with IL-6 and anti-IL-6R mAb, n=5)
O=c1[nH]c2ccccc2n1C1CCN(Cc2ccc(-c3nc4cc5nc[nH]c5cc4nc3-c3ccccc3)cc2)CC1 [Akt VIII] | restores responsiveness towards Treg-mediated suppression |  |  |  | 
IL-6: cytokine IL-6 (ImmunoTools) added to cultures |  | induce Treg resistance | increased phosphorylation of protein kinase B | significant decrease in PTEN protein expression | 
Tocilizumab [anti-IL-6 receptor antibody] | restores responsiveness towards Treg-mediated suppression |  |  |  | abolished this effect
